Data from patent US20160031836A1, “BIOMARKER” (Novartis AG, priority 2013, published 2016).
Blank lines part the entries; values can stand above or below the molecule they belong to.

Assays:
A375 cells = assay: Cell colony formation assay with MLL1 knockdown, NVP-LGX818; assay type: cell-based, human; conditions: shMLL1
Procedure: Supplementary FIG. 5: Cell colony formation assay of HSF1 knockdown or MLL1 knockdown with NVP-LGX818 treatment in A375 cells 5000 shNTC, shHSF1 or shMLL1 A375 cells were seeded in six wells plate and were treated or untreated with Doxycycline for 5 days, then followed by compound treatment for 6 days.

NOMO = assay: Cell proliferation by CellTiter-Glo, human leukemia cells; assay type: cell-based; conditions: 72 h
Procedure: (§1) Eight human leukemia cells with or without MLL1 translocation were treated with AUY922 for 72 h and cell proliferation rate were measured by CellTiter-Glo. IC95 were used to estimate the cell response to HSP90 inhibition. Supplementary Table. S1: 35 Genes were Identified as Modulators of Cell Response to HSP90 Inhibition by siRNA Screening

MOLM13 = assay: as above; assay type: cell-based; conditions: MOLM13, 72 h
Procedure: as §1

[1] = tested on: other leukemia cell lines; assay: as above; assay type: cell-based; conditions: 72 h
Procedure: as §1

RS(4,11) = assay: as above; assay type: cell-based; conditions: 72 h
Procedure: as §1

MLL1−/− MEFs [2] = assay: Cell apoptosis analysis (7AAD+AnnexinV+, FACS) in MEFs; assay type: cell-based, mouse; conditions: AUY922 100 nM, 48 h
Procedure: (§2) A. Cell colony formation assay of MLL1 knockdown with AUY922 treatment in A375 cells. 5000 shNTC or shMLL1 A375 cells were seeded in six wells plate and were treated or untreated with Doxycycline for 5 days, then followed by compound treatment for 6 days. B. Cell colony formation assay of MLL1 knockdown with AUY922 treatment in A2058 cells. 5000 shNTC or shMLL1 A2058 cells were seeded in six wells plate and were treated or untreated with Doxycycline for 5 days, then followed by compound treatment for 6 days. C. Western blotting analysis of tumor samples. Tumor samples were collected at the end of studies and western blotting analysis of MLL1 and GAPDH were performed. D. Real-time PCR analysis of tumor samples. Tumor samples were collected at the end of studies and total mRNA was collected and Real-time PCR was performed. E. The combinational effect of MLL1 knockdown and HSP90 inhibitor in A375 xenograft mouse model. Tumor growth rate of A375 cells expressing inducible control shRNA or shRNA against MLL1 under Doxycycline and/or HSP990 were compared at different time points. […] The percentage of S+G2M cells were determined by PI staining. […] The apoptotic cells represented by 7AAD+AnnexinV+ were determined by FACS. […] Relative cell growth was measured by CTG. […] The apoptotic cells represented by 7AAD+AnnexinV+ were determined by FACS.

MLL1+/+ MEFs [3] = assay: as above; assay type: cell-based, mouse; conditions: AUY922 100 nM, 48 h
Procedure: as §2

[4] = tested on: binding of HSF1 to HSP70 or BAG3 promoter; assay: ChIP with HSF1 antibody, quantitative real-time PCR; assay type: cell-based, human; conditions: A375 cells, AUY922 100 nM, one hour
Procedure: shHSF1 transduced A375 cells were treated with or without Doxycycline for 3 days and were further treated with AUY922 100 nM for 1 h. Chromatin was immunoprecipitated with anti-MLL1 antibody and amplified by quantitative real-time PCR using primers around HSE element of HSP70 (A) or BAG3 (B) gene promoter and MLL1 binding site of MESI1 (C) promoter.
To examine the recruitment of MLL1 to the HSF1-modulated gene promoter, we performed chromatin immunoprecipitation (ChIP) with A375 cells transduced with control or shMLL1 and treated or untreated with AUY922 for 1 h. Chromatin from those cells was sonicated to obtain fragments below 500 bp and immunoprecipitated using polyclonal against HSF1 and MLL1. Quantitative real-time PCR analysis was carried out with primer specific for the HSP70 and BAG3 encompassing the HSE element. MLL1 binding site of MESI1 was used as a control. […] In contrast, the bindings were not detected in A375 cells with inducible HSF1 knockdown (Supplement FIG. 3). A significant of MLL1 occupancy of the HSP70 and BAG3 gene promoter is also observed at one hour of AUY922 treatment (FIGS. 2C and D). In contrast, the binding of MLL1 to MESI promoter was not detected (FIG. 2E). […]

MLL1−/− MEFs [5] = assay: Microscopic analysis and dose response (CTG) in MEFs; assay type: cell-based, mouse; conditions: after 48 h treatment
Procedure: as §2

MLL1+/+ MEFs [6] = assay: as above; assay type: cell-based, mouse
Procedure: as §2

human primary BALL cells = assay: Dose response in human primary BALL cells (CellTiter-Glo); assay type: cell-based; conditions: 48 h
Procedure: A. The percentage of human leukemia cells in bone marrow of recipient mice transplanted with human primary leukemia cells. The human cells represented by human CD45+ were determined by FACS. B. Real-time PCR analysis of MLL1 expression among different human primary leukemia cell. C. Dose response of AUY922 in human primary BALL cells. Human primary BALL cells were treated with DMSO or serial dilutions of AUY922 for 48 h. Relative cell growth was measured by CellTiter-Glo. D. JURKAT, SEM, RS(4,11) and MOLM13 were treated for 72 h with different doses of AUY922 and/or NVP-JAE067, inhibition of cell viability was measured using the CellTiter-Glo assay. E. Chalice software was used to calculate excess inhibition over Loewe additivity for each AUY922 and NVP-JAE067 dose combination.
To investigate whether MLL1 expression is different in primary human cancer cells, we examined the expression of MLL1 in human B acute lymphoblastic leukemia samples. The primary human BALL cells were transplanted into immune deficient mice and bone marrow cells were collected from recipient mice until blood tumor burden is higher than 70% by FACS analysis. […] We next evaluated the efficacy of AUY922 on those human leukemia cells. […] We next tested the combination effect of AUY922 and DOT1L inhibitor NVP-JAE067 on human leukemia cells. […] Taken together, those result indicated human leukemia cells with MLL1 low expression may be more sensitive to HSP90 inhibition and the combination of HSP90 inhibitor and DOT1L inhibitor may be a good strategy for human leukemia cells harboring MLL1 translocation.

A375, A2058 and HCT116 = assay: Cell colony formation assay with MLL1 knockdown; assay type: cell-based, human; conditions: Doxycycline 5 days, compound 6 days
Procedure: A. Cell colony formation assay of MLL1 knockdown with AUY922 treatment in A375 cells. 5000 shNTC or shMLL1 A375 cells were seeded in six wells plate and were treated or untreated with Doxycycline for 5 days, then followed by compound treatment for 6 days. B. Cell colony formation assay of MLL1 knockdown with AUY922 treatment in A2058 cells. 5000 shNTC or shMLL1 A2058 cells were seeded in six wells plate and were treated or untreated with Doxycycline for 5 days, then followed by compound treatment for 6 days. C. Western blotting analysis of tumor samples. Tumor samples were collected at the end of studies and western blotting analysis of MLL1 and GAPDH were performed. D. Real-time PCR analysis of tumor samples. Tumor samples were collected at the end of studies and total mRNA was collected and Real-time PCR was performed. E. The combinational effect of MLL1 knockdown and HSP90 inhibitor in A375 xenograft mouse model. Tumor growth rate of A375 cells expressing inducible control shRNA or shRNA against MLL1 under Doxycycline and/or HSP990 were compared at different time points. […] The percentage of S+G2M cells were determined by PI staining. […] The apoptotic cells represented by 7AAD+AnnexinV+ were determined by FACS. […] Relative cell growth was measured by CTG. […] The apoptotic cells represented by 7AAD+AnnexinV+ were determined by FACS. […]

MOLM13 xenograft = MOLM13 xenograft mouse model, tumor growth; assay type: in vivo; conditions: 10 mg/kg PO, qw
Procedure: (§3) A. Real-time PCR analysis of different human leukemia cell lines under HSP90 inhibitor treatment. Human leukemia cells were cultured and treated or untreated with AUY922 for 48 h. Then, total mRNA was collected and Real-time PCR was performed. B. Cell apoptosis analysis of MLL1 low expression or MLL1 high expression human leukemia cells with AUY922 treatment. Human leukemia cells were treated or untreated with AUY922 100 nM for 48 h. The apoptotic cells represented by 7AAD+AnnexinV+ were determined by FACS. C. The effect of HSP90 inhibitor in SEM and MOLM13 xenograft mouse model. Tumor growth rate of SEM and MOLM13 under HSP990 treatment were compared at different time points. […] SEM and MOLM13 cells were treated or untreated with AUY922 100 nM for 3 h. Total RNA were collected and microarray was performed.
(§4) Mice were maintained and handled in accordance with Novartis Biomedical Research Animal Care and Use Committee protocols and regulations. A375 with Tet-inducible shRNA against MLL1 were cultured in DMEM supplemented with 10% Tet-approved FBS. Mice (6-8 wk old, n=8) were inoculated s.c. with 1×10^6 cells in the right dorsal axillary region. Tumor volume was measured by calipering in two dimensions and calculated as (length×width2)/2. […] Data were expressed as mean±SEM, and differences were considered statistically significant at P<0.05 by Student t test.

A375 xenograft = A375 xenograft mouse model, tumor growth; assay type: in vivo
SEM xenograft = SEM xenograft mouse model, tumor growth; assay type: in vivo; conditions: 10 mg/kg PO, qw
Procedure: as §3, §4

Structure (SMILES): COC(=O)N[C@@H](C)CNc1nccc(-c2cn(C(C)C)nc2-c2cc(Cl)cc(NS(C)(=O)=O)c2F)n1 [NVP-LGX818]
combinational effect with MLL1 knockdown, colony formation (A375 cells): does not have a combinational effect

binding of HSF1 to HSP70 or BAG3 promoter (ChIP) [4]: increased about ten times
Structure (SMILES): CCNC(=O)c1noc(-c2cc(C(C)C)c(O)cc2O)c1-c1ccc(CN2CCOCC2)cc1 [AUY922, 5-(2,4-Dihydroxy-5-isopropyl-phenyl)-4-(4-morpholin-4-ylmethyl-phenyl)-isoxazole-3-carboxylic acid ethylamide]
IC95 (NOMO): about 100 nM
IC95 (MOLM13): about 100 nM
IC95 [1]: about 1000 nM
IC95 (RS(4,11)): about 100 nM
cells induced apoptosis (MLL1−/− MEFs [2]): more than 80%
cells induced apoptosis (MLL1+/+ MEFs [3]): 30%
cells killed (MLL1−/− MEFs [5]): more than 90%
effect on proliferation / killing of cells (MLL1+/+ MEFs [6]): inhibits the proliferation rate of MEFs, but didn't kill those cells
response to treatment (relative cell growth) (human primary BALL cells; P1 leukemia cells with high MLL1 expression): didn't response
response to treatment (relative cell growth) (human primary BALL cells; P4 leukemia cells with low MLL1 expression): good response
response to treatment (relative cell growth) (human primary BALL cells; other two human leukemia samples): a certain response
sensitivity in colony formation on induction of MLL1 shRNA (A375, A2058 and HCT116): dramatically sensitivity

Structure (SMILES): COc1cccc(-c2cc(F)ccc2[C@H]2Cc3nc(N)nc(C)c3C(=O)N2)n1 [HSP990, (R)-2-amino-7-[4-fluoro-2-(6-methyoxy-pyridin-2-yl)-phenyl]-4-methyl-7,8-dihydro-6H-pyrido[4,3-d]pyrimidin-5-one]
inhibited tumor growth, T/C (MOLM13 xenograft): 60 % T/C
tumor growth outcome (A375 xenograft; HSF1 knockdown & HSP990 combination): tumor stasis
inhibited tumor growth, T/C (A375 xenograft; HSP990 alone, 10 mg/kg PO, qw): 50 % T/C
inhibited tumor growth, T/C (SEM xenograft): 30 % T/C
